In the NIST ThermoML archive (doi:10.1016/j.jct.2013.02.023):

Conditions: relaxation calorimetry - Quantum Design PPMS; for molar entropy: 101.33 kPa

O=P([O-])([O-])OP(=O)([O-])[O-].O=P([O-])([O-])OP(=O)([O-])[O-].O=P([O-])([O-])OP(=O)([O-])[O-].[Fe+3].[Fe+3].[Fe+3].[Fe+3] [iron(III) diphosphate]
Conditions | molar entropy [J/K/mol]
1 K, Crystal 3 | 0.07578
2 K, Crystal 3 | 0.1665
3 K, Crystal 3 | 0.2869
4 K, Crystal 3 | 0.4556
5 K, Crystal 3 | 0.6947
6 K, Crystal 3 | 1.027
7 K, Crystal 3 | 1.472
8 K, Crystal 3 | 2.047
9 K, Crystal 3 | 2.754
10 K, Crystal 3 | 3.591
11 K, Crystal 3 | 4.553
12 K, Crystal 3 | 5.629
13 K, Crystal 3 | 6.809
14 K, Crystal 3 | 8.084
15 K, Crystal 3 | 9.437
16 K, Crystal 3 | 10.86
17 K, Crystal 3 | 12.36
18 K, Crystal 3 | 13.92
19 K, Crystal 3 | 15.55
20 K, Crystal 3 | 17.25
25 K, Crystal 3 | 26.52
30 K, Crystal 2 | 36.76
35 K, Crystal 2 | 47.46
40 K, Crystal 2 | 59.06
45 K, Crystal 2 | 71.73
50 K, Crystal 1 | 84.46
55 K, Crystal 1 | 93.95
60 K, Crystal 1 | 103.22
65 K, Crystal 1 | 112.55
70 K, Crystal 1 | 121.98
75 K, Crystal 1 | 131.56
80 K, Crystal 1 | 141.27
85 K, Crystal 1 | 151.12
90 K, Crystal 1 | 161.1
95 K, Crystal 1 | 171.2
100 K, Crystal 1 | 181.43
110 K, Crystal 1 | 202.07
120 K, Crystal 1 | 222.81
130 K, Crystal 1 | 243.5
140 K, Crystal 1 | 264.06
150 K, Crystal 1 | 284.46
160 K, Crystal 1 | 304.66
170 K, Crystal 1 | 324.67
180 K, Crystal 1 | 344.47
190 K, Crystal 1 | 364.05
200 K, Crystal 1 | 383.42
210 K, Crystal 1 | 402.56
220 K, Crystal 1 | 421.48
230 K, Crystal 1 | 440.17
240 K, Crystal 1 | 458.61
250 K, Crystal 1 | 476.82
260 K, Crystal 1 | 494.79
270 K, Crystal 1 | 512.5
273.15 K, Crystal 1 | 518.03
280 K, Crystal 1 | 529.97
290 K, Crystal 1 | 547.19
298.15 K, Crystal 1 | 561.03
300 K, Crystal 1 | 564.15

Conditions | Triple point temperature [K]
Crystal 2 | 47.6
Crystal 3 | 27.3
